The values that follow come from US20240190904A1, “Heteroaryl compounds as inhibitors of RIP2 kinase, composition and application thereof” (Accro Bioscience (HK) Limited, priority 2021, published 2024).

SMILES strings stand for the structures.

Data set [1] deals with Caco-2. The experiment in a line: Caco-2 permeability test. It is filed as in vitro ADME. The settings on record: Caco-2. As for the experimental part: (§1) • 1. Prewarm HBSS Buffer in 37° C. water bath • 2. Take compounds from −20° C., sonicate for a few minutes (no less than 1 minute) • 3. Solution preparation
(§2) For A-to-B direction: • HBSS buffer with 0.3% DMSO and 5 μM LY: add 150 μL DMSO and 50 μL LY (5 mM) into 50 ml HBSS buffer (pH7.4). • HBSS buffer with 0.1% DMSO and 5 μM LY: add 50 μL DMSO and 50 μL LY (5 mM) into 50 mL HBSS buffer (pH7.4).
(§3) For B-to-A direction: • HBSS buffer with 0.3% DMSO: add 150 μL DMSO into 50 ml HBSS buffer (pH7.4) • HBSS buffer with 0.1% DMSO: add 50 μL DMSO into 50 ml HBSS buffer (pH7.4).
(§4) Receiver Solution Buffer:
(§5) Prepare HBSS buffer with 0.4% DMSO: add 200 μL DMSO into 50 ml HBSS buffer (pH7.4).
(§6) For B-to-A direction: • Prepare HBSS buffer with 0.4% DMSO and 5 uM LY: add 200 μL DMSO and 50 μL LY (5 mM) into 50 ml HBSS buffer (pH7.4).
(§7) Take cell culture plate out of incubator, wash the cell monolayers with HBSS buffer, and then measure TEER values at Rm temperature. • 5. Centrifuge the compound solution (from step 3) at 4000 rpm for 5 min before loading to donor chambers. • 6. Add solution based on the volumes listed in the following table (make sure to take extra 100 uL of donor sample for T0 as Backup).
(§8) • 7. To determine LY concentration in the apical chamber, take 100 μL sample from apical chambers into an opaque plate for LYT0. • 8. Prewarm apical and basolateral plates at 37° C. for about 5 min, then begin transport by placing the apical plate onto basolateral plate. • 9. Keep the plates in incubator at 37° C. for 90 min • 10. Prepare 20× solution
(§9) • 11. Separate the apical plate from the basolateral plate after 90-min incubation. • 12. Take 100 μL samples from basolateral plate to an opaque plate as LYT90. • 13. Measure LY concentrations for LYT0 and LYT90 by Fluorometer (at excitation of 485 nm/emission of 535 nm). • 14. Sample preparation for LC-MS/MS: Donor or receiver samples are diluted by 0.4% DMSO HBSS, then mix with ACN with IS (Osalmid or Imipramine)

Data set [2] in a line: Caco-2 permeability test. The format is in vitro ADME. The settings on record: human, Caco-2, pH 7.4. Here is the method:
as §1, §2, §3, §4, §5, §6, §7, §8, §9

For data set [3], the target named is RIP2 kinase (Homo sapiens (Human), UniProt O43353). The experiment in a line: Binding affinity assay (Kd). Here is the method:
For most assays, kinase-tagged T7 phage strains were prepared in an E. coli host derived from the BL21 strain. E. coli were grown to log-phase and infected with T7 phage and incubated with shaking at 32° C. until lysis. The lysates were centrifuged and filtered to remove cell debris. The remaining kinases were produced in HEK-293 cells and subsequently tagged with DNA for qPCR detection. Streptavidin coated magnetic beads were treated with biotinylated small molecule ligands for 30 minutes at room temperature to generate affinity resins for kinase assays. The liganded beads were blocked with excess biotin and washed with blocking buffer (SeaBlock (Pierce), 1% BSA, 0.05% Tween 20, 1 mM DTT) to remove unbound ligand and to reduce non-specific binding. Binding reactions were assembled by combining kinases, liganded affinity beads, and test compounds in 1× binding buffer (20% SeaBlock, 0.17×PBS, 0.05% Tween 20, 6 mM DTT). Test compounds were prepared as 111× stocks in 100% DMSO. Kds were determined using an 11-point 3-fold compound dilution series with three DMSO control points. All compounds for Kd measurements are distributed by acoustic transfer (non-contact dispensing) in 100% DMSO. The compounds were then diluted directly into the assays such that the final concentration of DMSO was 0.9%. All reactions performed in polypropylene 384-well plate. Each was a final volume of 0.02 ml. The assay plates were incubated at room temperature with shaking for 1 hour and the affinity beads were washed with wash buffer (1×PBS, 0.05% Tween 20). The beads were then re-suspended in elution buffer (1×PBS, 0.05% Tween 20, 0.5 μM nonbiotinylated affinity ligand) and incubated at room temperature with shaking for 30 minutes. The kinase concentration in the eluates was measured by qPCR.
An 11-point 3-fold serial dilution of each test compound was prepared in 100% DMSO at 100× final test concentration and subsequently diluted to 1× in the assay (final DMSO concentration=1%). Most Kds were determined using a compound top concentration=30,000 nM. If the initial Kd determined was <0.5 nM (the lowest concentration tested), the measurement was repeated with a serial dilution starting at a lower top concentration.
Binding constants (Kds) were calculated with a standard dose-response curve using the Hill equation: […]
The Hill Slope was set to −1.
Curves were fitted using a non-linear least square fit with the Levenberg-Marquardt algorithm.

Data set [4] is described as follows: Metabolic stability test, HLM. The format is in vitro ADME. The settings on record: human, liver microsomes; for CLint scaled at 1 μM: pH 7.4, read-out: Cl (mL/min/kg) HLM; for half-life at 1 μM: pH 7.4, read-out: T1/2 (min) HLM. Here is the method: • 1. Buffers: • Buffer A: 1.0 L of 0.1 M monobasic Potassium Phosphate buffer containing 1.0 mM EDTA • Buffer B: 1.0 L of 0.1 M Dibasic Potassium Phosphate buffer containing 1.0 mM EDTA • Buffer C: 0.1 M Potassium Phosphate buffer, 1.0 mM EDTA, pH 7.4 by titrating 700 mL of buffer B with buffer A while monitoring with the pH meter. • 2. Reference compounds (Ketanserin) and test compounds spiking solution: • 500 μM spiking solution: add 10 μL of 10 mM DMSO stock solution into 190 μL ACN. • 1.5 μM spiking solution in microsomes (0.75 mg/mL): add 1.5 μL of 500 μM spiking solution and 18.75 μL of 20 mg/mL liver microsomes into 479.75 μL of Buffer C on ice. • 3. Prepare NADPH stock solution (6 mM) by dissolving NADPH into buffer C. • 4. Dispense 30 μL of 1.5 μM spiking solution containing 0.75 mg/mL microsomes solution to the assay plates designated for different time points (0-, 5-, 15-, 30-, 45-min) on ice. • 5. For 0-min time point, add 135 μL of ACN containing IS to the wells of 0-min plate and then add 15 μL of NADPH stock solution (6 mM). • 6. Pre-incubate all other plates at 37° C. for 5 minutes. • 7. Add 15 μL of NADPH stock solution (6 mM) to the plates to start the reaction and timing. • 8. At 5-min, 15-min, 30-min, and 45-min, add 135 μL of ACN containing IS to the wells of corresponding plates, respectively, to stop the reaction. • 9. After quenching, shake the plates at the vibrator (IKA, MTS 2/4) for 10 min (600 rpm/min) and then centrifuge at 5594 g for 15 min (ThermoMultifuge×3R). • 10. Transfer 50 μL of the supernatant from each well into a 96-well sample plate containing 50 μL of ultra pure water (Millipore, ZMQS50F01) for LC/MS analysis.

Where [5] appears, read: efflux ratio, read-out: Caco-2 Permeability B-A/A-B.

Sequence of RIP2 kinase (O43353 whole entry): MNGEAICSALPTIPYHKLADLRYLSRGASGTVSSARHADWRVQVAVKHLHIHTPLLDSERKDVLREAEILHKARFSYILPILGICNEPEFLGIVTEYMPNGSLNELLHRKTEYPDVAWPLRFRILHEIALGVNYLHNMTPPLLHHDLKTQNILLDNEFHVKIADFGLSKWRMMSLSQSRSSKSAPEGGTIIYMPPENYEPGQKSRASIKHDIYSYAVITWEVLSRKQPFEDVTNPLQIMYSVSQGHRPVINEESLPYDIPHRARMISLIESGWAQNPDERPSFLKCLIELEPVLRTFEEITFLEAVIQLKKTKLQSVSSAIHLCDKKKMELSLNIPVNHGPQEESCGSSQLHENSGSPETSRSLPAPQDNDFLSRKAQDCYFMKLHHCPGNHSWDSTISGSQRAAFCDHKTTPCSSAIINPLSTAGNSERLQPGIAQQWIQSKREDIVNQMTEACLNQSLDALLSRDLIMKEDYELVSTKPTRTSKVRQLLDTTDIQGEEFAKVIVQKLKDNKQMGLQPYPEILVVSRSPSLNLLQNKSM

Consider `CP(C)(=O)c1cc2c(Nc3ccc4scnc4c3)ccnc2cc1OC(F)(F)F` [A24], for which, in data set [1], the “efflux (in words)” value was “no obvious efflux” and the “permeability (in words)” value is on record as “high permeability”. The same molecule returned a Papp A→B at 90 min, 2 μM in data set [2] (A-B, test at 2 μM) of 16.9 ×10⁻⁶ cm/s. In data set [2] (B-A, test at 2 μM), this molecule came in with a basolateral-to-apical permeability (Papp B→A) at 90 min, 2 μM of 26.6 ×10⁻⁶ cm/s. Moreover, in data set [2] (efflux ratio, test at 2 μM, read-out: Caco-2 Permeability B-A/A-B), the efflux ratio at 90 min, 2 μM was 1.58. In data set [3], this molecule showed a dissociation constant Kd of 5.2 nM.

As to `CP(C)(=O)c1cc2c(Nc3ccc4scnc4c3)ccnc2cc1O[C@@H]1CCOC1` [A15], in data set [4], the CLint scaled at 1 μM is 19.6 mL/min/kg and the half-life at 1 μM is 88.6 min. Moreover, in data set [1], the “permeability (in words)” value is on record as “moderate”. This molecule also returned a Papp A→B at 90 min in data set [2] (A-B) of 5.36 ×10⁻⁶ cm/s. The molecule further displayed a Papp B→A at 90 min in data set [2] (B-A) of 35 ×10⁻⁶ cm/s. Further, in data set [2] (setting [5]), the efflux ratio at 90 min turned out to be 6.53. This molecule displayed a Kd in data set [3] of 3 nM.

In the case of `CP(C)(=O)c1cc2c(Nc3ccc4scnc4c3)ccnc2cc1OC1COC1` [A16], in data set [4], the CLint scaled at 1 μM was determined as 9.98 mL/min/kg and the half-life at 1 μM amounted to 174 min. Moreover, the “permeability (in words)” value in data set [1] is given as “low”. Further, the Papp A→B at 90 min in data set [2] (A-B) turned out to be 2.16 ×10⁻⁶ cm/s. In data set [2] (B-A), this molecule showed a Papp B→A at 90 min of 31.1 ×10⁻⁶ cm/s. Also, in data set [2] (setting [5]), the efflux ratio at 90 min amounted to 14.4. In data set [3], the equilibrium dissociation constant (Kd) is 3.8 nM.

Take `COc1cc2nccc(Nc3ccc4scnc4c3)c2cc1P(C)(C)=O` [A6]: in data set [4], the CLint scaled at 1 μM is 2.97 mL/min/kg and the half-life at 1 μM came to 586 min. Besides, in data set [1], the “efflux (in words)” value is “no obvious efflux” and the “permeability (in words)” value is on record as “high permeability”. The apical-to-basolateral permeability (Papp A→B) at 90 min in data set [2] (A-B) came to 15.2 ×10⁻⁶ cm/s. The apparent permeability from basolateral to apical (Papp B→A) at 90 min in data set [2] (B-A) was determined as 33 ×10⁻⁶ cm/s. Further, in data set [2] (setting [5]), the efflux ratio at 90 min was found to be 2.18. Moreover, the Kd in data set [3] stood at 3.1 nM.

For the molecule `CC1(COc2cc3nccc(Nc4ccc5scnc5c4)c3cc2P(C)(C)=O)COC1` [A9], in data set [4], the CLint scaled at 1 μM worked out at 33.5 mL/min/kg and the half-life at 1 μM stood at 52 min. The “permeability (in words)” value in data set [1] was “moderate”. For the same molecule, in data set [2] (A-B), the apical-to-basolateral permeability (Papp A→B) at 90 min amounted to 7.85 ×10⁻⁶ cm/s. Also, in data set [2] (B-A), the Papp B→A at 90 min stood at 46.5 ×10⁻⁶ cm/s. Also, the efflux ratio at 90 min in data set [2] (setting [5]) was 5.92. Further, in data set [3], the Kd worked out at 2.1 nM.

For `COCCOc1cc2nccc(Nc3ccc4scnc4c3)c2cc1P(C)(C)=O` [A8], in data set [4], the CLint scaled at 1 μM was 15.9 mL/min/kg and the half-life at 1 μM amounted to 109 min. Further, in data set [1], the “efflux (in words)” value is given as “efflux substrate” and the “permeability (in words)” value is on record as “favorable permeability”. Also, the apical-to-basolateral permeability (Papp A→B) at 90 min in data set [2] (A-B) came to 11.9 ×10⁻⁶ cm/s. The molecule further displayed a Papp B→A at 90 min in data set [2] (B-A) of 35.6 ×10⁻⁶ cm/s. Also, in data set [2] (setting [5]), the efflux ratio at 90 min is 2.98. In data set [3], binding was characterised by a dissociation constant (Kd) of 2 nM.

For `CP(C)(=O)c1cc2c(Nc3ccc4scnc4c3)ccnc2cc1OCCO` [A7, (4-(benzo[d]thiazol-5-ylamino)-7-(2-hydroxyethoxy)quinolin-6-yl)dimethylphosphine oxide], in data set [4], the CLint scaled at 1 μM was determined as 4.13 mL/min/kg and the half-life at 1 μM was found to be 421 min. The “permeability (in words)” value in data set [1] is listed as “low”. For the same molecule, the Papp A→B at 90 min in data set [2] (A-B) amounted to 0.5 ×10⁻⁶ cm/s. Moreover, the apparent permeability from basolateral to apical (Papp B→A) at 90 min in data set [2] (B-A) worked out at 10.2 ×10⁻⁶ cm/s. Besides, the efflux ratio at 90 min in data set [2] (setting [5]) stood at 20.5. In data set [3], the Kd worked out at 5.8 nM.

For the molecule `CP(C)(=O)c1cc2c(Nc3ccc4scnc4c3)ccnc2cc1O[C@H]1CCOC1` [A14], in data set [4], the CLint scaled at 1 μM turned out to be 22.9 mL/min/kg and the half-life at 1 μM stood at 75.8 min. The “permeability (in words)” value in data set [1] was “moderate”. The molecule further had a Papp A→B at 90 min in data set [2] (A-B) of 7 ×10⁻⁶ cm/s. Moreover, in data set [2] (B-A), the basolateral-to-apical permeability (Papp B→A) at 90 min stood at 35.9 ×10⁻⁶ cm/s. The efflux ratio at 90 min in data set [2] (setting [5]) was 5.13. For the same molecule, in data set [3], the Kd was found to be 3 nM.
